Experimental data from the NIST ThermoML archive (doi:10.1016/j.jct.2015.04.021).
Numbers after ± are expanded uncertainties.

Assay: xn = mol fraction of the nth substance listed
Conditions: 101.3 kPa, Liquid, Pycnometric method

Row | Compound | mass density (303.15 K, x1 = 0.75) [kg/m3] | mass density (303.15 K, x1 = 0.8) [kg/m3] | mass density (303.15 K, x1 = 0.833) [kg/m3] | mass density (313.15 K, x1 = 0.75) [kg/m3] | mass density (313.15 K, x1 = 0.8) [kg/m3] | mass density (313.15 K, x1 = 0.833) [kg/m3] | mass density (323.15 K, x1 = 0.75) [kg/m3] | mass density (323.15 K, x1 = 0.8) [kg/m3] | mass density (323.15 K, x1 = 0.833) [kg/m3] | mass density (333.15 K, x1 = 0.75) [kg/m3] | mass density (333.15 K, x1 = 0.8) [kg/m3] | mass density (333.15 K, x1 = 0.833) [kg/m3]
1 | OCc1ccco1 [2-hydroxymethylfuran] + C[N+](C)(C)CCO.[Cl-] | 1131.8 ± 1.3 | 1131.5 ± 1.3 | 1130.9 ± 1.3 | 1125.2 ± 1.3 | 1124.3 ± 1.3 | 1123.8 ± 1.3 | 1118.6 ± 1.3 | 1117.1 ± 1.3 | 1116.6 ± 1.3 | 1112 ± 1.3 | 1109.9 ± 1.3 | 1109.5 ± 1.3
2 | CC(=O)CCC(=O)O [4-oxopentanoic acid] + C[N+](C)(C)CCO.[Cl-] | 1134.6 ± 1.1 | 1134.1 ± 1.1 | 1133.7 ± 1.1 | 1127.6 ± 1.1 | 1127.3 ± 1.1 | 1127 ± 1.1 | 1120.9 ± 1.2 | 1120.4 ± 1.2 | 1120.2 ± 1.2 | 1113.8 ± 1.2 | 1113.1 ± 1.2 | 1113 ± 1.2
